The values below come from patent US5459129A, “Condensed heterocyclic compounds, their production and use” (Takeda Chemical Industries, Ltd., priority 1990, dated 1995).

In assay [1] the target is T1, 5-aminoimidazole-4-carboxyamide ribonucleotide transformylase (AICARTF) (Homo sapiens, UniProt P31939).
T1 construct: AICARTF was prepared from CCRF-CEM human lymphoblast leukemia cells; endogenous in cells; host or cells: CCRF-CEM human lymphoblast leukemia cells
Nature of the assay: Measurement of AICARTF inhibiting action. The format is biochemical. As to conditions: AICARTF prepared from CCRF-CEM human lymphoblast leukemia cells; absorbance at 298 nm for 15 minutes; read-out: IC50 AICARTF (concentration required for 50% inhibiting the activity of AICARTF). The protocol: AICARTF was prepared from CCRF-CEM human lymphoblast leukemia cells by partially modifying the method described in Biochemistry 20 337 (1981), S. J. Benkovic, et al.
The enzymic reaction was conducted by adding the compounds of various concentrations in Working Examples to 0.95 ml of a solution consisting of a […] Tris.HCl buffer solution (pH 7.4), 5 μM 2-mercaptoethanol,25 μM potassium chloride, 0.1 μM (-)-10-formyl tetrahydrofolic acid and AICARTF, and, before starting the reaction, 0.05 ml of 1 mM 5-aminoimidazole-4-carboxylamide ribonucleotide.
The UV spectrum was measured at 298 nm for 15 minutes at the interval of 15 seconds to evaluate by the increase of absorbance due to the production of tetrahydrofolic acid to determine the concentration required for 50% inhibiting the activity of AICARTF (IC50).

Assay [2] has as its target T2, thymidylate acid synthase (TS) (Mus musculus, UniProt P07607).
T2 construct: endogenous in cells; host or cells: Meth A fibrosarcoma cells (sonicated; 100,000 x g supernatant)
In words: Determination of TS inhibiting action. In kind it is biochemical. The note with it: roughly refined TS fraction from Meth A fibrosarcoma cells; [3H]dUMP, 1 hour at 37° C.; read-out: IC50 TS (concentration required for 50% inhibiting the TS activity). The protocol: A roughly refined fraction of TS was prepared from Meth A fibrosarcoma cells serially cultivated in vitro. For culturing the cells, Eagle's minimum essential medium containing 10% (v/v) bovine fetal serum [MEM; Nissui Pharmaceutical Co. Ltd.] was used. The cells in logarithmic growth were recovered and washed twice with a physiological aqueous saline solution buffered with phosphate, which was then suspended in 0.2M sucrose, 0.01M Tris.HCl buffer solution (pH 7.5). The cells were destroyed by ultrasonic wave, and the suspension was subjected to centrifugation (100,000×g), then the supernatant was collected. Using bovine γ-groblin as the standard protein, the protein concentration was measured by using a protein.dye reagent (Bio-Rad), so that the protein concentration was adjusted to 10 mg/ml.
Enzymic reaction was conducted by partially modifying the method described in Biochemistry 5, 3546 (1966). The composition of the reaction medium was as follows; 0.058% (v/v) formaldehyde, 6.78 mM sodium fluoride, 0.2 mM 2-mercapto ethanol, 6.24 mg/ml bovine serum albumin, 80 μM 2'-deoxyuridine-5'-1 phosphoric acid (dUMP), 80 μM tetrahydrofolic acid, 2 mg/ml roughly refined TS fraction and 0.173M Tris.HCl buffer solution (pH 7.5). To the reaction medium were added the compounds of various concentrations obtained in Working Examples. 540 KBg of [^3 H] dUMP relative to 50 μl of the ultimate reaction medium was added, and the reaction was allowed to proceed for 1 hour at 37° C. in a 96-microwell plate. After completion of the reaction, 26.65% trichloroacetic acid and 3.33 mg/ml dUMP were added to suspend the reaction. To the reaction mixture was added 220 μl of 11.4 mg/ml activated charcoal. The whole mixture was subjected to centrifugation, and the radioactivity in 100 μl of the supernatant was measured by liquid scintillation counter to determine the concentration required for 50% inhibiting the TS activity (ICa50), as shown in Table 1.

Assay [3] deals with Meth A fibrosarcoma (Meth A) cells. In words: Inhibiting action against growth of Meth A fibrosarcoma cells in vitro. In kind it is cell-based. As to conditions: 72 hours culture, Coulter counter, read-out: IC50 (concentration required for decreasing the number of cells in the untreated control group by 50%). The method, then:
Meth A cells (2×10^4 /ml) prepared by a conventional method were inoculated into each well of the 12-microwell plate (2.0 ml in a well), and subjected to standing culture at 37° C. under 5% CO2. The compounds obtained in Working Examples dissolved at appropriate concentrations were diluted to 2-10 times stepwise with an MEM (Nissui Pharmaceutical Co., Ltd.) solution, to and the resulting dilutions were added to the culture medium. The medium was again subjected to standing culture at 37° C. under 5% CO2 for 72 hours. Then, the total number of cells at each concentration was measured by Coulter counter (Coulter Electronic, Florida in U.S.A.), and the average value of the cells in three wells was expressed by the number of cells per milliliter.
The concentrations of the respective compounds required for decreasing the number of cells in the untreated control group by 50% was made IC50 of the respective compounds.

T2 sequence (P07607 whole entry): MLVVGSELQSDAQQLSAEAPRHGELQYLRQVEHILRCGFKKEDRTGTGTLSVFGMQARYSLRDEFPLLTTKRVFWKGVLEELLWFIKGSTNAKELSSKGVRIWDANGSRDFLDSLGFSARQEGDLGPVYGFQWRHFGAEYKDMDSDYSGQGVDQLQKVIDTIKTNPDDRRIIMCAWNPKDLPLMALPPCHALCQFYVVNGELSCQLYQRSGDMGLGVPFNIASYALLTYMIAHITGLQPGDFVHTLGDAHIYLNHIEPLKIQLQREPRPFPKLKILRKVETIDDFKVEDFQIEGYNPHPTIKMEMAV
T1 sequence (P31939 whole entry): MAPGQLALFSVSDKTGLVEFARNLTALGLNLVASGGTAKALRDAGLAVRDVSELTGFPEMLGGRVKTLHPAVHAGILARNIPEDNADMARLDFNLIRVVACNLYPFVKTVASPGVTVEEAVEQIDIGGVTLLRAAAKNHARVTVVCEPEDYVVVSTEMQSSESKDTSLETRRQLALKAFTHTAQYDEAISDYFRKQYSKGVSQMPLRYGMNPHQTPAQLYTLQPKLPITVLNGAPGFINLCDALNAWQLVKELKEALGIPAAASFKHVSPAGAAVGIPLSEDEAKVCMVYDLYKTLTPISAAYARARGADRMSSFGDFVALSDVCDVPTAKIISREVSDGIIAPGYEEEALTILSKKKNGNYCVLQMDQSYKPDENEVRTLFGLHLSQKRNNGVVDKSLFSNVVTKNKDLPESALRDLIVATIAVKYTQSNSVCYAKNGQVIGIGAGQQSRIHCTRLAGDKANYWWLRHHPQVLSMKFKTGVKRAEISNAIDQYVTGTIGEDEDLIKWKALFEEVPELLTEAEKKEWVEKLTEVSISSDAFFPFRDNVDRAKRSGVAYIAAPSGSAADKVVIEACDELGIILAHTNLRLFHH

On to `Nc1nc(N)c2c(CCCc3ccc(C(=O)N[C@@H](CCC(=O)N[C@@H](CCC(=O)N[C@@H](CCC(=O)N[C@@H](CCC(=O)N[C@@H](CCC(=O)N[C@@H](CCC(=O)O)C(=O)O)C(=O)O)C(=O)O)C(=O)O)C(=O)O)C(=O)O)cc3)c[nH]c2n1` [Ex. 10, [N-[4-[3-(2,4-diamino-7H-pyrrolo[2,3-d]pyrimidin-5-yl)propyl]benzoyl]-γ-L-glutamyl]-γ-L-glutamyl-γ-L-glutamyl-γ-L-glutamyl-γ-L-glutamyl-L-glutamic acid], for which the IC50 in assay [1] was determined as 0.2 µM; in assay [2], 20 µM.

As for `Nc1nc(N)c2c(CCCc3ccc(C(=O)N[C@@H](CCC(=O)N[C@@H](CCC(=O)N[C@@H](CCC(=O)N[C@@H](CCC(=O)N[C@@H](CCC(=O)O)C(=O)O)C(=O)O)C(=O)O)C(=O)O)C(=O)O)cc3)c[nH]c2n1` [Ex. 9, [N-[4-[3-(2,4-diamino-7H-pyrrolo[2,3-d]pyrimidin-5-yl)propyl]benzoyl]-γ-L-glutamyl]-γ-L-glutamyl-γ-L-glutamyl-γ-L-glutamyl-L-glutamic acid], the results for the IC50 in assay [1] and in assay [2] were 0.4 µM and 20 µM, respectively.

With `Nc1nc(N)c2c(CCCc3ccc(C(=O)N[C@@H](CCC(=O)N[C@@H](CCC(=O)N[C@@H](CCC(=O)O)C(=O)O)C(=O)O)C(=O)O)cc3)c[nH]c2n1` [Ex. 8, [N-[4-[3-(2,4-diamino-7H-pyrrolo[2,3-d]pyrimidin-5-yl)propyl]benzoyl]-γ-L-glutamyl]-γ-L-glutamyl-γ-L-glutamic acid], the IC50 in assay [1] stood at 0.6 µM; in assay [2] it was 21 µM.

For `Nc1nc(N)c2c(CCCc3ccc(C(=O)N[C@@H](CCC(=O)N[C@@H](CCC(=O)O)C(=O)O)C(=O)O)cc3)c[nH]c2n1` [Ex. 6, [N-[4-[3-(2,4-diamino-7H-pyrrolo[2,3-d]pyrimidin-5-yl)propyl]benzoyl]-γ-L-glutamyl]-L-glutamic acid], the IC50 in assay [1] is 9 µM; in assay [3], 0.61 µM; in assay [2], 36 µM.

`Nc1nc(N)c2c(CCCc3ccc(C(=O)N[C@@H](CCC(=O)N[C@@H](CCC(=O)N[C@@H](CCC(=O)O)C(=O)O)C(=O)O)C(=O)O)cc3)c[nH]c2n1` [Ex. 7, [N-[4-[3-(2,4-diamino-7H-pyrrolo[2,3-d]pyrimidin-5-yl)propyl]benzoyl]-γ-L-glutamyl]-γ-L-glutamyl-L-glutamic acid]: the IC50 is 6 µM in assay [1], 0.58 µM in assay [3] and 40 µM in assay [2].
